# Assay results taken from patent US20240158472A1, “FERRITIN VARIANTS WITH INCREASED STABILITY AND COMPLEXATION ABILITY” (Cellis AG, priority 2021, published 2024).
# Test system: siRNA
# Assay: Association of ferritin with siRNA, gel
# Format: binding
# Procedure: 1 ml reaction containing 2 mg Ft and 4 ug siRNA in DPBS, pH lowered to values as indicated (2.5, 3.2, 4.4, 5.6 and 6.8, respectively). Samples were incubated 15 min in RT, then NaOH was added to adjust pH to neutral (pH 7). Non-associated free siRNA was removed by 4 centrifugation steps on Amicons with 100 kDa cut-off.
substance,measurement,setting,value
"Q11E mutant: Examples 3-8 ferritin variant based on Q11E with added K54E, K72E, K87Q, K144E, C91S, C103S and C131S",association with siRNA,incubated in pH 2.4 and 3.2,not
same,association with siRNA,"incubated in pH range 4.4 to 6.8, 2 mg Ft and 4 ug siRNA",associated with siRNA
